Target: Aβ42 (Homo sapiens, UniProt P05067)
Assay: Th-T (thioflavin-T) assay of Aβ42 aggregation
Type: biochemical
Conditions: for Th-T fluorescence, mean of three wells: compound at 50

Aβ42, sequence (P05067 672-713): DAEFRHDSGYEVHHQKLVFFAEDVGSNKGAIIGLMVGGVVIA

C=C1CCC2C(C)(CCC=C(C)C)C(O)CCC2(C)C1Cc1c(OC)oc(CO)c(C(=O)OC)c1=O (stereo not drawn) [Compound 13]
Th-T fluorescence, mean of three wells (reading M54 of time course): 0.4653
Th-T fluorescence, mean of three wells (reading M55 of time course): 0.4661
Th-T fluorescence, mean of three wells (reading M56 of time course): 0.4654
Th-T fluorescence, mean of three wells (reading M57 of time course): 0.4695
Th-T fluorescence, mean of three wells (reading M58 of time course): 0.4698
Th-T fluorescence, mean of three wells (reading M59 of time course): 0.4665
Th-T fluorescence, mean of three wells (reading M60 of time course): 0.4689
Th-T fluorescence, mean of three wells (reading M61 of time course): 0.471
Th-T fluorescence, mean of three wells (reading M62 of time course): 0.4707
Th-T fluorescence of Aβ42 with compound, mean of three wells (Fig. 7a source data) (concentration 10, unit not given, time-course reading M129): 1.537
Th-T fluorescence of Aβ42 with compound, mean of three wells (Fig. 7a source data) (concentration 10, unit not given, time-course reading M130): 1.546
Th-T fluorescence of Aβ42 with compound, mean of three wells (Fig. 7a source data) (concentration 10, unit not given, time-course reading M131): 1.547
Th-T fluorescence of Aβ42 with compound, mean of three wells (Fig. 7a source data) (concentration 10, unit not given, time-course reading M132): 1.542
Th-T fluorescence of Aβ42 with compound, mean of three wells (Fig. 7a source data) (concentration 10, unit not given, time-course reading M133): 1.541
Th-T fluorescence of Aβ42 with compound, mean of three wells (Fig. 7a source data) (concentration 10, unit not given, time-course reading M134): 1.54
Th-T fluorescence of Aβ42 with compound, mean of three wells (Fig. 7a source data) (concentration 10, unit not given, time-course reading M135): 1.5371
Th-T fluorescence of Aβ42 with compound, mean of three wells (Fig. 7a source data) (concentration 10, unit not given, time-course reading M136): 1.543
Th-T fluorescence of Aβ42 with compound, mean of three wells (Fig. 7a source data) (concentration 10, unit not given, time-course reading M137): 1.53
Th-T fluorescence of Aβ42 with compound, mean of three wells (Fig. 7a source data) (concentration 10, unit not given, time-course reading M138): 1.542
Th-T fluorescence of Aβ42 with compound, mean of three wells (Fig. 7a source data) (concentration 10, unit not given, time-course reading M139): 1.54
Th-T fluorescence of Aβ42 with compound, mean of three wells (Fig. 7a source data) (concentration 10, unit not given, time-course reading M140): 1.544
Th-T fluorescence of Aβ42 with compound, mean of three wells (Fig. 7a source data) (concentration 10, unit not given, time-course reading M141): 1.531
Th-T fluorescence of Aβ42 with compound, mean of three wells (Fig. 7a source data) (concentration 10, unit not given, time-course reading M142): 1.539
Th-T fluorescence of Aβ42 with compound, mean of three wells (Fig. 7a source data) (concentration 10, unit not given, time-course reading M143): 1.544
Th-T fluorescence of Aβ42 with compound, mean of three wells (Fig. 7a source data) (concentration 10, unit not given, time-course reading M144): 1.537
Th-T fluorescence of Aβ42 with compound, mean of three wells (Fig. 7a source data) (concentration 10, unit not given, time-course reading M145): 1.534
Th-T fluorescence of Aβ42 with compound, mean of three wells (Fig. 7a source data) (concentration 20, unit not given, time-course reading M129): 1.025
Th-T fluorescence of Aβ42 with compound, mean of three wells (Fig. 7a source data) (concentration 20, unit not given, time-course reading M130): 1.025
Th-T fluorescence of Aβ42 with compound, mean of three wells (Fig. 7a source data) (concentration 20, unit not given, time-course reading M131): 1.024
Th-T fluorescence of Aβ42 with compound, mean of three wells (Fig. 7a source data) (concentration 20, unit not given, time-course reading M132): 1.024
Th-T fluorescence of Aβ42 with compound, mean of three wells (Fig. 7a source data) (concentration 20, unit not given, time-course reading M133): 1.026
Th-T fluorescence of Aβ42 with compound, mean of three wells (Fig. 7a source data) (concentration 20, unit not given, time-course reading M134): 1.029
Th-T fluorescence of Aβ42 with compound, mean of three wells (Fig. 7a source data) (concentration 20, unit not given, time-course reading M135): 1.025
Th-T fluorescence of Aβ42 with compound, mean of three wells (Fig. 7a source data) (concentration 20, unit not given, time-course reading M136): 1.027
Th-T fluorescence of Aβ42 with compound, mean of three wells (Fig. 7a source data) (concentration 20, unit not given, time-course reading M137): 1.027
Th-T fluorescence of Aβ42 with compound, mean of three wells (Fig. 7a source data) (concentration 20, unit not given, time-course reading M138): 1.029
Th-T fluorescence of Aβ42 with compound, mean of three wells (Fig. 7a source data) (concentration 20, unit not given, time-course reading M139): 1.029
Th-T fluorescence of Aβ42 with compound, mean of three wells (Fig. 7a source data) (concentration 20, unit not given, time-course reading M140): 1.019
Th-T fluorescence of Aβ42 with compound, mean of three wells (Fig. 7a source data) (concentration 20, unit not given, time-course reading M141): 1.021
Th-T fluorescence of Aβ42 with compound, mean of three wells (Fig. 7a source data) (concentration 20, unit not given, time-course reading M142): 1.024
Th-T fluorescence of Aβ42 with compound, mean of three wells (Fig. 7a source data) (concentration 20, unit not given, time-course reading M143): 1.022
Th-T fluorescence of Aβ42 with compound, mean of three wells (Fig. 7a source data) (concentration 20, unit not given, time-course reading M144): 1.02
Th-T fluorescence of Aβ42 with compound, mean of three wells (Fig. 7a source data) (concentration 20, unit not given, time-course reading M145): 1.019
Th-T fluorescence of Aβ42 with compound, mean of three wells (Fig. 7a source data) (concentration 50, unit not given, time-course reading M129): 0.475
Th-T fluorescence of Aβ42 with compound, mean of three wells (Fig. 7a source data) (concentration 50, unit not given, time-course reading M130): 0.4748
Th-T fluorescence of Aβ42 with compound, mean of three wells (Fig. 7a source data) (concentration 50, unit not given, time-course reading M131): 0.479
Th-T fluorescence of Aβ42 with compound, mean of three wells (Fig. 7a source data) (concentration 50, unit not given, time-course reading M132): 0.4776
Th-T fluorescence of Aβ42 with compound, mean of three wells (Fig. 7a source data) (concentration 50, unit not given, time-course reading M133): 0.4741
Th-T fluorescence of Aβ42 with compound, mean of three wells (Fig. 7a source data) (concentration 50, unit not given, time-course reading M134): 0.4743
Th-T fluorescence of Aβ42 with compound, mean of three wells (Fig. 7a source data) (concentration 50, unit not given, time-course reading M135): 0.479
Th-T fluorescence of Aβ42 with compound, mean of three wells (Fig. 7a source data) (concentration 50, unit not given, time-course reading M136): 0.4773
Th-T fluorescence of Aβ42 with compound, mean of three wells (Fig. 7a source data) (concentration 50, unit not given, time-course reading M137): 0.4745
Th-T fluorescence of Aβ42 with compound, mean of three wells (Fig. 7a source data) (concentration 50, unit not given, time-course reading M138): 0.4775
Th-T fluorescence of Aβ42 with compound, mean of three wells (Fig. 7a source data) (concentration 50, unit not given, time-course reading M139): 0.4782
Th-T fluorescence of Aβ42 with compound, mean of three wells (Fig. 7a source data) (concentration 50, unit not given, time-course reading M140): 0.4767
Th-T fluorescence of Aβ42 with compound, mean of three wells (Fig. 7a source data) (concentration 50, unit not given, time-course reading M141): 0.4755
Th-T fluorescence of Aβ42 with compound, mean of three wells (Fig. 7a source data) (concentration 50, unit not given, time-course reading M142): 0.4776
